From patent publication US20170129958A1, “COMBINATION THERAPY” (ImClone LLC, priority 2014, published 2017) come the findings set out here.

Assay [1] concerns SKLMS-1 leiomyosarcoma xenograft. Nature of the assay: SKLMS-1 leiomyosarcoma xenograft model. The class given is in vivo, nu/nu athymic mice. The note with it: day 21; olaratumab 60 mg/kg (loading dose 214 mg/kg), doxorubicin 3 mg/kg, i.p. twice a week; versus saline control. The procedure: 6 to 7-week-old female nu/nu athymic mice are injected with 5×10^6 SKLMS-1 (ATCC #HBT-88) cells/mouse in 50% Matrigel (BD Biosciences #356235). When tumors are approximately 300 mm^3 in volume, the mice are randomized by tumor volume into 4 treatment groups (n=12): Group 1 control mice are dosed with USP Saline (Aldwin Scientific #2F7124) at 10 μL/gram, Group 2 mice are dosed with olaratumab at 60 mg/kg (loading dose 214 mg/kg), Group 3 mice are dosed with doxorubicin (Sigma #D-1515) at 3 mg/kg and Group 4 mice are dosed with a combination of olaratumab and doxorubicin at the monotherapy concentrations of 60 mg/kg olaratumab and 3 mg/kg doxorubicin. The combinations are dosed so that olaratumab is administered 1-2 hours prior to doxorubicin on the days of treatment. All treatments are administered via intra-peritoneal injection twice a week on Tuesday and Friday.
Olaratumab and doxorubicin are prepared in USP Saline. Tumor volume is measured by three dimensional caliper measurements twice a week during the course of the study and calculated as volume in mm^3=L (longer of measured dimension)×W^2 (shorter dimension)×(pi/6). […] Relative changes in tumor volume (% T/C) are calculated using the tumor volume measurements taken at day 21 and the baseline tumor volume is the volume recorded on or just prior to first day of dosing.

Assay [2] relates to patients with advanced STS. The note with it: interim analysis; for Disease Control Rate (CR + PR + SD) (%) (90% CI) / ORR (CR + PR) (%) (90% CI): RECIST 1.1. The procedure:
The Study is an open-label, multicenter, Phase 2 trial in which patients with advanced STS not amenable to treatment with surgery or radiotherapy are treated with olaratumab in combination with doxorubicin or doxorubicin alone.
Enrolled patients who meet all eligibility criteria are randomized 1:1 to one of two treatment arms, Arm A or Arm B. Arm A patients receive olaratumab in combination with doxorubicin (hereinafter the “Combination Arm”) and Arm B patients receive doxorubicin alone (hereinafter the “Doxorubicin Arm”). Randomization of this Study is performed according to a dynamic randomization algorithm using 4 pre-defined risk factors: PDGFRα expression (positive vs. negative), number of previous lines of treatment (0 vs. 1+lines), histological tumor type (i.e., leiomyosarcoma vs. synovial sarcoma vs. other tumor type), and ECOG performance status (0-1 vs. 2). This dynamic randomization procedure is used to minimize imbalance between treatment groups. To determine tumor type and PDGFRα expression in patients, a tumor sample from either a biopsy or previously archived tumor tissue sample is sufficient. Biopsy is required to be performed within 21 days prior to randomization; archived tissue sample must also be available within this timeframe.
Combination Arm: 64 patients randomized in the Combination Arm receive 15 mg/kg of olaratumab on Days 1 and 8 of each 21-day treatment cycle, in combination with 75 mg/m^2 doxorubicin administered on Day 1 of each cycle. (Note: if premedication is required prior to the first doxorubicin infusion, this is to be done after the completion of olaratumab infusion, not before the olaratumab infusion. This premedication may be administered within the hour that follows completion of the olaratumab infusion.) The actual (not planned) administration of each doxorubicin infusion defines Day 1 of each 21-day treatment cycle. The combination treatment just described is to continue for up to 8 cycles at the investigator's discretion. During Cycles 5 through 8, patients being treated with doxorubicin may also be administered 750 mg/m^2 dexrazoxane on Day 1 of each cycle, (at the investigator's discretion) prior to doxorubicin on Day 1 of each 21-day cycle. If the dose of doxorubicin is reduced at any point in the Study, the dose of dexrazoxane is to be reduced accordingly, maintaining a dosage ratio of 10:1. For example, if doxorubicin is reduced to 60 mg/m^2, then dexrazoxane is to be reduced to 600 mg/m^2. Doxorubicin may be administered within the hour that follows completion of the olaratumab infusion. In the absence of PD or other withdrawal criteria, patients in the Combination Arm who have completed eight cycles of therapy are to receive subsequent olaratumab monotherapy, administered on Days 1 and 8 of each 21-day cycle. Furthermore, if doxorubicin is discontinued (e.g., for reasons of toxicity) prior to end of cycle 8 and in the absence of withdrawal criteria, patients may continue to receive olaratumab monotherapy. For patients who discontinue olaratumab during the first 8 cycles of treatment, doxorubicin may be continued (for up to 8 cycles), provided no withdrawal criteria are met.
Doxorubicin Arm: 65 patients randomized in the Doxorubicin Arm receive 75 mg/m^2 doxorubicin on Day 1 of each cycle, for up to 8 cycles at the investigator's discretion. The actual (not planned) administration of each doxorubicin infusion defines Day 1 of each 21-day treatment cycle. During cycles 5 through 8, 750 mg/m^2 dexrazoxane may also be administered on Day 1 of each cycle, (at the investigator's discretion) prior to doxorubicin on Day 1 of each 21-day cycle. If the dose of doxorubicin is reduced at any point in the Study, the dose of dexrazoxane is to be reduced accordingly, maintaining a dosage ratio of 10:1. For example, if doxorubicin is reduced to 60 mg/m^2, then dexrazoxane is to be reduced to 600 mg/m^2.

For assay [3], the system named is KHOS/NP osteosarcoma xenograft. Put plainly: KHOS/NP osteosarcoma xenograft model. The class given is in vivo, nu/nu athymic mice. As to conditions: day 32; olaratumab 60 mg/kg (loading dose 214 mg/kg), doxorubicin 3 mg/kg, i.p. twice a week; versus saline control. The procedure:
6 to 7-week-old female nu/nu athymic mice are injected with 1×10^6 KHOS/NP (ATCC #CRL-1544) cells/mouse in 50% Matrigel (BD Biosciences #356235). When tumors are approximately 450 mm^3 in volume, the mice are randomized by tumor volume into 4 treatment groups (n=12): Group 1 control mice are dosed with USP Saline (Aldwin Scientific #2F7124) at 10 μL/gram, Group 2 mice are dosed with olaratumab at 60 mg/kg (loading dose 214 mg/kg), Group 3 mice are dosed with doxorubicin (Sigma #D-1515) at 3 mg/kg and Group 4 mice are dosed with a combination of olaratumab and doxorubicin at the monotherapy concentrations of 60 mg/kg olaratumab and 3 mg/kg doxorubicin. The combinations are dosed so that doxorubicin is administered 3 hours prior to olaratumab on the days of treatment. All treatments are administered via intra-peritoneal injection twice a week on Monday and Thursday.
Olaratumab and doxorubicin are prepared in USP Saline. Tumor volume is measured by three dimensional caliper measurements twice a week during the course of the study and calculated as volume in mm^3=L (longer of measured dimension)×W^2 (shorter dimension)×(pi/6). […] Relative changes in tumor volume (% T/C) are calculated using the tumor volume measurements taken at day 32, whereas the baseline tumor volume is the volume recorded on or just prior to first day of dosing.

The test system of assay [4] is A204 rhabdoid tumor xenograft. Put plainly: A204 rhabdoid xenograft model. The class given is in vivo, nu/nu athymic mice. As to conditions: day 30; olaratumab 40 mg/kg i.p. 3x a week; versus HuIgG control. The procedure:
7 to 8-week-old female nu/nu athymic mice are injected with 5×10^6 A204 (ATCC #CRL-7900) cells/mouse in 100% Matrigel (BD Biosciences #356235). When tumors are approximately 340 mm^3 in volume, the mice are randomized by tumor volume into 2 treatment groups (n=12): Group 1 control mice are dosed with HuIgG (Equitech-Bio #SLH66-0001) at 40 mg/kg and Group 2 mice are dosed with olaratumab at 40 mg/kg. All treatments are administered via intra-peritoneal injection 3×a week on Monday, Wednesday and Friday.
Olaratumab is diluted in USP Saline (Aldwin Scientific #2F7124) at 4 mg/mL. Tumor volume is measured by three dimensional caliper measurements twice a week during the course of the study and calculated as volume in mm^3=L (longer of measured dimension)×W^2 (shorter dimension)×(pi/6). A repeated measures ANOVA is used to evaluate the differences in tumor growth and body weight between the treatment groups. Relative changes in tumor volume (%T/C) are calculated using the tumor volume measurements taken at day 30, whereas the baseline tumor volume is the volume recorded on or just prior to first day of dosing.

[5] abbreviates: patients sub-typed with leiomyosarcoma.

Like-named read-outs stand apart in the source and are kept apart here.

For `COc1cccc2c1C(=O)c1c(O)c3c(c(O)c1C2=O)C[C@@](O)(C(=O)CO)C[C@@H]3O[C@H]1C[C@H](N)[C@H](O)[C@H](C)O1` [doxorubicin], the “% T/C (relative change in tumor volume)” value in assay [1] was 64%; in assay [3], 72%. For the same molecule, the “OS Median Weeks (90% CI)” value in assay [2] (all STS subtypes, Kaplan-Meier) was found to be 58.7 weeks. The “PFS Median Weeks (90% CI)” value in assay [2] (all STS subtypes, Kaplan-Meier, olaratumab 15 mg/kg Days 1 and 8, doxorubicin 75 mg/m^2 Day 1, 21-day cycle) turned out to be 17.9 weeks. Besides, in assay [2] (12 months), the “12-month OS rate” value is 55.1%. The “18-month OS rate” value in assay [2] (18 months) turned out to be 40.0%. The “Disease Control Rate (CR + PR + SD) (%) (90% CI)” value in assay [2] and in assay [2] (listed as Doxorubicin Arm) was 53.8% throughout. Also, the “ORR (CR + PR) (%) (90% CI)” value in assay [2] and in assay [2] (listed as Doxorubicin Arm) was 10.8% throughout. Further, the “PFS Other Sarcoma Median Weeks (90% CI)” value in assay [2] (patients sub-typed as other sarcomas) turned out to be 19.0 weeks. In addition, in assay [2] (setting [5]), the “OS Leiomyosarcoma Median Weeks (90% CI)” value is 45.3 weeks. The “PFS Leiomyosarcoma Median Weeks (90% CI)” value in assay [2] (setting [5]) was determined as 15.7 weeks. For the same molecule, the “OS Other Sarcoma Median Weeks (90% CI)” value in assay [2] (patients sub-typed with other sarcomas) is recorded as 78.1 weeks.
Turning to “olaratumab: recombinant human monoclonal IgG1 anti-PDGFRα antibody; two heavy chains SEQ ID NO: 9, two light chains SEQ ID NO: 10; CAS 1024603-93-7”, the “% T/C (relative change in tumor volume)” value in assay [1] is given as 64%; in assay [4], 37%; in assay [3], 79%.
